Data reported in patent US10231965B2, “Molecules for administration to ROS1 mutant cancer cells” (Ignyta, Inc., priority 2014, dated 2019).
“Also recorded” adds a separate entry of the source.

What was measured:
[1] = Dose escalation study in human patients with advanced solid tumors: PK; assay type: in vivo
Experimental: (§1) A dose escalation study of N-[5-(3,5-difluorobenzyl)-1H-indazol-3-yl]-4-(4-methyl-piperazin-1-yl)-2-(tetrahydro-2H-pyran-4-ylamino) benzamide was conducted in human patients with advanced solid tumors. N-[5-(3,5-difluorobenzyl)-1H-indazol-3-yl]-4-(4-methyl-piperazin-1-yl)-2-(tetrahydro-2H-pyran-4-ylamino) benzamide was dosed orally once/day in a 4 day on, 3 day off schedule for 3 weeks, followed by a 7 day rest period, in continuous 28-day cycles (Schedule A); once/day in continuous 28-day cycles (Schedule B); and once/day in a 4 day on, 3 day off schedule without interruption in continuous 28-day cycles (Schedule C). A minimum of 3 patients were enrolled at each dose level. Endpoints include safety, PK, and tumor response by response evaluation criteria in solid tumors (RECIST).
(§2) Schedule A evaluated ascending oral doses of N-[5-(3,5-difluorobenzyl)-1H-indazol-3-yl]-4-(4-methyl-piperazin-1-yl)-2-(tetrahydro-2H-pyran-4-ylamino) benzamide once daily (fasted state) in a 4-day on, 3-day off schedule for 3 weeks, followed by a 7-day rest period, in continuous 28-day cycles. Dose escalation was conducted according to the standard ‘3+3’ scheme.
(§3) Schedule B evaluated ascending oral doses of N-[5-(3,5-difluorobenzyl)-1H-indazol-3-yl]-4-(4-methyl-piperazin-1-yl)-2-(tetrahydro-2H-pyran-4-ylamino) benzamide once daily (fed state) without rest, in continuous 28-day cycles.
(§4) Schedule C evaluated ascending oral doses of N-[5-(3,5-difluorobenzyl)-1H-indazol-3-yl]-4-(4-methyl-piperazin-1-yl)-2-(tetrahydro-2H-pyran-4-ylamino) benzamide once daily (fed state) in a 4-day on, 3-day off schedule for 4 weeks without rest, in continuous 28-day cycles.

[2] = test system: human patients with advanced solid tumors; assay: Dose escalation study in human patients with advanced solid tumors: safety, adverse events; assay type: in vivo
Experimental: as §1, §2, §3, §4

[3] = test system: Non-Small Cell Lung Cancer (NSCLC); assay: Dose escalation study: tumor response by RECIST, NSCLC patients; assay type: in vivo, human
Experimental: as §1, §2, §3, §4

Colorectal Cancer (CRC) = assay: Dose escalation study: tumor response by RECIST, CRC patient; assay type: in vivo, human; conditions: person, metastatic CRC, TrkA rearrangement, 1600 mg/m^2, Schedule A
Experimental: as §1, §2, §3, §4

Neuroblastoma (NB) = assay: Dose escalation study: tumor response by RECIST, neuroblastoma patient; assay type: in vivo, human; conditions: person, metastatic NB, ALK mutation, Schedule A
Experimental: as §1, §2
Schedule B evaluated ascending oral doses of N-[5-(3,5-difluorobenzyl)-1H-indazol-3-yl]-4-(4-methyl-piperazin-1-yl)-2-(tetrahydro-2H-pyran-4-ylamino) benzamide once daily (fed state) without rest, in continuous 28-day cycles. […]

advanced solid tumors = assay: Dose escalation study: tumor response by RECIST, all patients; assay type: in vivo, human
Experimental: as §1, §2, §3, §4

SMILES: CN1CCN(c2ccc(C(=O)Nc3n[nH]c4ccc(Cc5cc(F)cc(F)c5)cc34)c(NC3CCOCC3)c2)CC1 [N-[5-(3,5-difluorobenzyl)-1H-indazol-3-yl]-4-(4-methyl-piperazin-1-yl)-2-(tetrahydro-2H-pyran-4-ylamino) benzamide]
- exposure at top dose (reason Schedule A was terminated) ([1]; Schedule A, 1600 mg/m2/day): plateau
- mean plasma half-life ([1]; human patients, oral once/day, following administration): 17 to 44 h
- Exposure versus dose ([1]; human patients, oral, dosing Schedule A): increased in an approximate dose proportional manner up to doses of 800 mg/m^2
- Abdominal pain G1 (%) ([2]; 25 patients, all schedules): 16%
- Abdominal pain G1, number of patients ([2]; 25 patients, all schedules): 4
- Abdominal pain G2 (%) ([2]; 25 patients, all schedules): 8%
- Abdominal pain G2, number of patients ([2]; 25 patients, all schedules): 2
- Abdominal pain Total (%) ([2]; 25 patients, all schedules): 24%
- Abdominal pain Total, number of patients ([2]; 25 patients, all schedules): 6
- Arthralgia G1 (%) ([2]; 25 patients, all schedules): 12%
- Arthralgia G1, number of patients ([2]; 25 patients, all schedules): 3
- Arthralgia G2 (%) ([2]; 25 patients, all schedules): 12%
- Arthralgia G2, number of patients ([2]; 25 patients, all schedules): 3
- Arthralgia Total (%) ([2]; 25 patients, all schedules): 24%
- Arthralgia Total, number of patients ([2]; 25 patients, all schedules): 6
- Asthenia G1 (%) ([2]; 25 patients, all schedules): 36%
- Asthenia G1, number of patients ([2]; 25 patients, all schedules): 9
- Asthenia G2 (%) ([2]; 25 patients, all schedules): 12%
- Asthenia G2, number of patients ([2]; 25 patients, all schedules): 3
- Asthenia Total (%) ([2]; 25 patients, all schedules): 52%
- Asthenia Total, number of patients ([2]; 25 patients, all schedules): 13
- Back Pain G1 (%) ([2]; 25 patients, all schedules): 20%
- Back Pain G1, number of patients ([2]; 25 patients, all schedules): 5
- Back Pain G2 (%) ([2]; 25 patients, all schedules): 4%
- Back Pain G2, number of patients ([2]; 25 patients, all schedules): 1
- Back Pain Total (%) ([2]; 25 patients, all schedules): 24%
- Back Pain Total, number of patients ([2]; 25 patients, all schedules): 6
- Cough G1 (%) ([2]; 25 patients, all schedules): 16%
- Cough G1, number of patients ([2]; 25 patients, all schedules): 4
- Cough G2 (%) ([2]; 25 patients, all schedules): 4%
- Cough G2, number of patients ([2]; 25 patients, all schedules): 1
- Cough Total (%) ([2]; 25 patients, all schedules): 20%
- Cough Total, number of patients ([2]; 25 patients, all schedules): 5
- Diarrhea G1 (%) ([2]; 25 patients, all schedules): 24%
- Diarrhea G1, number of patients ([2]; 25 patients, all schedules): 6
- Diarrhea G2 (%) ([2]; 25 patients, all schedules): 8%
- Diarrhea G2, number of patients ([2]; 25 patients, all schedules): 2
- Diarrhea Total (%) ([2]; 25 patients, all schedules): 32%
- Diarrhea Total, number of patients ([2]; 25 patients, all schedules): 8
- Dysgeusia G1 (%) ([2]; 25 patients, all schedules): 24%
- Dysgeusia G1, number of patients ([2]; 25 patients, all schedules): 6
- Dysgeusia G2 (%) ([2]; 25 patients, all schedules): 0 (0) %
- Dysgeusia G2, number of patients ([2]; 25 patients, all schedules): 0 (0)
- Dysgeusia Total (%) ([2]; 25 patients, all schedules): 24%
- Dysgeusia Total, number of patients ([2]; 25 patients, all schedules): 6
- Dyspnea G1 (%) ([2]; 25 patients, all schedules): 12%
- Dyspnea G1, number of patients ([2]; 25 patients, all schedules): 3
- Dyspnea G2 (%) ([2]; 25 patients, all schedules): 4%
- Dyspnea G2, number of patients ([2]; 25 patients, all schedules): 1
- Dyspnea Total (%) ([2]; 25 patients, all schedules): 24%
- Dyspnea Total, number of patients ([2]; 25 patients, all schedules): 6
- Headache G1 (%) ([2]; 25 patients, all schedules): 24%
- Headache G1, number of patients ([2]; 25 patients, all schedules): 6
- Headache G2 (%) ([2]; 25 patients, all schedules): 0 (0) %
- Headache G2, number of patients ([2]; 25 patients, all schedules): 0 (0)
- Headache Total (%) ([2]; 25 patients, all schedules): 24%
- Headache Total, number of patients ([2]; 25 patients, all schedules): 6
- Myalgia G1 (%) ([2]; 25 patients, all schedules): 24%
- Myalgia G1, number of patients ([2]; 25 patients, all schedules): 6
- Myalgia G2 (%) ([2]; 25 patients, all schedules): 4%
- Myalgia G2, number of patients ([2]; 25 patients, all schedules): 1
- Myalgia Total (%) ([2]; 25 patients, all schedules): 28%
- Myalgia Total, number of patients ([2]; 25 patients, all schedules): 7
- Nausea G1 (%) ([2]; 25 patients, all schedules): 56%
- Nausea G1, number of patients ([2]; 25 patients, all schedules): 14
- Nausea G2 (%) ([2]; 25 patients, all schedules): 8%
- Nausea G2, number of patients ([2]; 25 patients, all schedules): 2
- Nausea Total (%) ([2]; 25 patients, all schedules): 64%
- Nausea Total, number of patients ([2]; 25 patients, all schedules): 16
- Paresthesia G1 (%) ([2]; 25 patients, all schedules): 60%
- Paresthesia G1, number of patients ([2]; 25 patients, all schedules): 15
- Paresthesia G2 (%) ([2]; 25 patients, all schedules): 0 (0) %
- Paresthesia G2, number of patients ([2]; 25 patients, all schedules): 0 (0)
- Paresthesia Total (%) ([2]; 25 patients, all schedules): 60%
- Paresthesia Total, number of patients ([2]; 25 patients, all schedules): 15
- Pyrexia G1 (%) ([2]; 25 patients, all schedules): 24%
- Pyrexia G1, number of patients ([2]; 25 patients, all schedules): 6
- Pyrexia G2 (%) ([2]; 25 patients, all schedules): 0 (0) %
- Pyrexia G2, number of patients ([2]; 25 patients, all schedules): 0 (0)
- Pyrexia Total (%) ([2]; 25 patients, all schedules): 24%
- Pyrexia Total, number of patients ([2]; 25 patients, all schedules): 6
- Vomiting G1 (%) ([2]; 25 patients, all schedules): 28%
- Vomiting G1, number of patients ([2]; 25 patients, all schedules): 7
- Vomiting G2 (%) ([2]; 25 patients, all schedules): 8%
- Vomiting G2, number of patients ([2]; 25 patients, all schedules): 2
- Vomiting Total (%) ([2]; 25 patients, all schedules): 36%
- Vomiting Total, number of patients ([2]; 25 patients, all schedules): 9
- possibly drug-related Grade >3 AE observed (asthenia), number ([2]; Grade 3 in one patient, 1200 mg/m^2, Schedule A, subsided with dose reduction to 800 mg/m^2/day): 1
- severity of AEs ([2]; all dosing schedules tested): Most AEs<Grade 2
- tolerability ([2]; all dosing schedules tested, intermittent and daily continuous): well tolerated in all dosing schedules tested
- DLTs, study discontinuations due to AEs, drug-related SAEs ([2]; any dosing schedule): No drug limiting toxicities, study discontinuations due to adverse events, or drug-related serious adverse events were reported; also recorded: No DLTs, study discontinuations due to AEs, or drug-related SAEs were reported
- most common adverse events (mainly grade 1-2) considered possibly treatment-related ([2]; human patients, oral): nausea, paresthesia, vomiting, diarrhea, asthenia, myalgia, arthralgia, and dysgeusia
- possibly treatment-related grade 3 AE of asthenia, number ([2]; human patients, oral): one
- tumor response ([3]; person one, ROS1 rearrangement, s/p 3 cycles of chemotherapy, 400 mg/m2/day, Schedule C): partial response
- cycles until response achieved ([3]; person one, ROS1 rearrangement, 400 mg/m2/day, Schedule C): 1 cycle
- tumor response ([3]; person two, ROS1 rearrangement, s/p 2 cycles of chemotherapy, 400 mg/m2/day, Schedule C): complete response
- cycles until response achieved ([3]; person two, ROS1 rearrangement, 400 mg/m2/day, Schedule C): 2 cycles
- cycles until response achieved ([3]; person, ALK rearrangement, 1200 mg/m2/day, Schedule A): 4 cycles
- tumor response ([3]; person, CNS metastases, ROS1 rearrangement, s/p chemotherapy, erlotinib, 1200 mg/m^2/day, Schedule A): partial response
- cycles until response achieved ([3]; person, CNS metastases, ROS1 rearrangement, 1200 mg/m^2/day, Schedule A): 2 cycles
- tumor response ([3]; person, metastatic adenocarcinoma, ALK rearrangement, s/p chemotherapy, crizotinib, 1200 mg/m2/day, Schedule A): partial response
- tumor response (Colorectal Cancer (CRC); s/p chemotherapy, cetuximab): partial response
- cycles until response achieved (Colorectal Cancer (CRC)): 1 cycle
- duration of partial response before progressive disease (Colorectal Cancer (CRC)): 4 cycles
- cycles until response achieved (Neuroblastoma (NB); 200 to 1200 mg/m^2/day): 12 cycles
- tumor response (Neuroblastoma (NB); started at 200 mg/m^2/day, escalated to 1200 mg/m^2/day): partial response
- number of partial responses durable >9 cycles (advanced solid tumors; 25 patients evaluated): 3
- number of partial responses (advanced solid tumors; 25 patients evaluated, NSCLC, CRC and NB with TrkA, ROS1, and ALK molecular alterations): 5
- complete response (advanced solid tumors; 25 patients evaluated, patient with NSCLC with a ROS1 molecular alteration): a complete response
- number of patients with prolonged stable disease (11+ cycles) (advanced solid tumors; NSCLC and pancreatic adenocarcinoma): 2
